In ChEMBL document CHEMBL5653615 (J Biol Chem, 2013):

How the values were obtained:
[1] = biological target: Tyrosine-protein kinase Fgr (Homo sapiens) (UniProt P09769); test: Inhibition of human FGR at 500 nM by HotSpot assay relative to control
[2] = biological target: T1, Serine/threonine-protein kinase ULK1 (Homo sapiens) (UniProt O75385); test: Inhibition of human ULK1 at 500 nM by HotSpot assay relative to control
T1 sequence (whole entry): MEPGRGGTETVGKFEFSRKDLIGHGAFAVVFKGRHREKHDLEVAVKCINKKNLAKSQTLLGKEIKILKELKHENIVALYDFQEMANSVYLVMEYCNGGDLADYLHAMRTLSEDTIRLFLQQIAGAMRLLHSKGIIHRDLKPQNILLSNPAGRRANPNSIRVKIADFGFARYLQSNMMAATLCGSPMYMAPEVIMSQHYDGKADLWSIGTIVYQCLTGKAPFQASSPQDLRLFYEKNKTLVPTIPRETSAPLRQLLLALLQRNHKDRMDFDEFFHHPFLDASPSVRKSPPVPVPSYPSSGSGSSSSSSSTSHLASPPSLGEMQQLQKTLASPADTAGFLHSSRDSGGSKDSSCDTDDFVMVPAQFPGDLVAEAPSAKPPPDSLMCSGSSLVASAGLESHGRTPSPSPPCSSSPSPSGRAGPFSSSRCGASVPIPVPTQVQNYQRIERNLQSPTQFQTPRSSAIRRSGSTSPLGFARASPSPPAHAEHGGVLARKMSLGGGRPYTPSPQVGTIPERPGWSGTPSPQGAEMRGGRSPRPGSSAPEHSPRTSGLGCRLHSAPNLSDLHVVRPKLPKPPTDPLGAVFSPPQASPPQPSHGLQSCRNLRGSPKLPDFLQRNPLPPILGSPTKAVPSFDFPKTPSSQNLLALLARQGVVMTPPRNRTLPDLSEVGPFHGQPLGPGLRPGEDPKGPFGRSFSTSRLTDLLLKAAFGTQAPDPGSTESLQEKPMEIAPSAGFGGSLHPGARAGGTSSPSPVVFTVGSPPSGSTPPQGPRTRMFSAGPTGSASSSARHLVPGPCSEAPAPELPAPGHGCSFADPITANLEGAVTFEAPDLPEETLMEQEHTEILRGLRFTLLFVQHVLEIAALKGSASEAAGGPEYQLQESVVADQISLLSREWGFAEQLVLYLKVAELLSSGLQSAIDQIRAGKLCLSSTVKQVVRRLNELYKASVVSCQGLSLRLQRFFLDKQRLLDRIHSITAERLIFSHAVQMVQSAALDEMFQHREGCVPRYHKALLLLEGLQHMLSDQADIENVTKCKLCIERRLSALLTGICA

[3] = biological target: CDK6/cyclin D3 (Homo sapiens) (UniProt P30281+Q00534); test: Inhibition of human CDK6/cyclin D3 at 500 nM by HotSpot assay relative to control; format: protein-complex assay
[4] = biological target: Fibroblast growth factor receptor 1 (Homo sapiens) (UniProt P11362); test: Inhibition of human FGFR1 at 500 nM by HotSpot assay relative to control
[5] = biological target: T2, Tyrosine-protein kinase JAK3 (Homo sapiens) (UniProt P52333); test: Inhibition of human JAK3 at 500 nM by HotSpot assay relative to control
T2 sequence (whole entry): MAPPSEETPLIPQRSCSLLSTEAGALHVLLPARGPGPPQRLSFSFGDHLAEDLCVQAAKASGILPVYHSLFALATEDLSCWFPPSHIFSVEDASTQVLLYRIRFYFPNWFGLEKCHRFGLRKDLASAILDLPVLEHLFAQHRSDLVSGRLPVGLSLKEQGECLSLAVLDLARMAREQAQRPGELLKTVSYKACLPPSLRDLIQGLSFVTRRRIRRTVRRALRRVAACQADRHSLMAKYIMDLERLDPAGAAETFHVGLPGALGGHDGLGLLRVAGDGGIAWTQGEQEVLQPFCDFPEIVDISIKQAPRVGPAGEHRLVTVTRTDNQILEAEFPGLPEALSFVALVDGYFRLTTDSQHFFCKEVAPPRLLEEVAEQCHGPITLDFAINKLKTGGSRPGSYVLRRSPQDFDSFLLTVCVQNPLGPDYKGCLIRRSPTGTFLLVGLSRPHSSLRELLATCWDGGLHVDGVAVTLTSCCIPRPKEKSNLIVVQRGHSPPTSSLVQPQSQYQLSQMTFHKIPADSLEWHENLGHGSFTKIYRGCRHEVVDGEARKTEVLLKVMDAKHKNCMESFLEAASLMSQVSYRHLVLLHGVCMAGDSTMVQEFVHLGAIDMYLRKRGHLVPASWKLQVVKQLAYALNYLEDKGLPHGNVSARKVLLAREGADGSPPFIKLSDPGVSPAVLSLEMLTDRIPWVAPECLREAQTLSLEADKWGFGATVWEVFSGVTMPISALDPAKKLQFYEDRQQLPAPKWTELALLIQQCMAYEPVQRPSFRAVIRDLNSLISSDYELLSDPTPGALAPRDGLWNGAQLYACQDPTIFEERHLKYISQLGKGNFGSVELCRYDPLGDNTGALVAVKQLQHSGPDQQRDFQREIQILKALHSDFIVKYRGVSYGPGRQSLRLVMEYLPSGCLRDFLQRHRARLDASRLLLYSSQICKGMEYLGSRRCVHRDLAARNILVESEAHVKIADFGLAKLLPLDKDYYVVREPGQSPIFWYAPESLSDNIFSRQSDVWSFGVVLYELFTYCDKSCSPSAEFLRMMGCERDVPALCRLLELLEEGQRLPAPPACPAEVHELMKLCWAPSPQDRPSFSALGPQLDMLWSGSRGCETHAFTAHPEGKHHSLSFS

[6] = biological target: Protein kinase C theta type (Homo sapiens) (UniProt Q04759); test: Inhibition of human PKCtheta at 500 nM by HotSpot assay relative to control
[7] = biological target: Calcium/calmodulin-dependent protein kinase kinase 2 (Homo sapiens) (UniProt Q96RR4); test: Inhibition of human CAMKK2 at 500 nM by HotSpot assay relative to control
[8] = biological target: T3, Dual specificity mitogen-activated protein kinase kinase 6 (Homo sapiens) (UniProt P52564); test: Inhibition of human MKK6 at 500 nM by HotSpot assay relative to control
T3 sequence (whole entry): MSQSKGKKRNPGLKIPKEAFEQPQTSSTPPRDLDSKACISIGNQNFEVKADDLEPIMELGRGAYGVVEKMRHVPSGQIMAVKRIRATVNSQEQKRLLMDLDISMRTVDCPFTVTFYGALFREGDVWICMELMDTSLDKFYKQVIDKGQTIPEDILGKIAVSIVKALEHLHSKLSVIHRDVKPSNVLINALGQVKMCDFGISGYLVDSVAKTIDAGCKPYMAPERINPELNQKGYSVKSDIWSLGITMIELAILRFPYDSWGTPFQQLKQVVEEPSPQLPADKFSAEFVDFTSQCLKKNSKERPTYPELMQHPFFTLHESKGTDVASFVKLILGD

[9] = biological target: Mitogen-activated protein kinase kinase kinase kinase 5 (Homo sapiens) (UniProt Q9Y4K4); test: Inhibition of human KHS at 500 nM by HotSpot assay relative to control
Chain of Mitogen-activated protein kinase kinase kinase kinase 5 (Homo sapiens) (Q9Y4K4 whole entry, looked up): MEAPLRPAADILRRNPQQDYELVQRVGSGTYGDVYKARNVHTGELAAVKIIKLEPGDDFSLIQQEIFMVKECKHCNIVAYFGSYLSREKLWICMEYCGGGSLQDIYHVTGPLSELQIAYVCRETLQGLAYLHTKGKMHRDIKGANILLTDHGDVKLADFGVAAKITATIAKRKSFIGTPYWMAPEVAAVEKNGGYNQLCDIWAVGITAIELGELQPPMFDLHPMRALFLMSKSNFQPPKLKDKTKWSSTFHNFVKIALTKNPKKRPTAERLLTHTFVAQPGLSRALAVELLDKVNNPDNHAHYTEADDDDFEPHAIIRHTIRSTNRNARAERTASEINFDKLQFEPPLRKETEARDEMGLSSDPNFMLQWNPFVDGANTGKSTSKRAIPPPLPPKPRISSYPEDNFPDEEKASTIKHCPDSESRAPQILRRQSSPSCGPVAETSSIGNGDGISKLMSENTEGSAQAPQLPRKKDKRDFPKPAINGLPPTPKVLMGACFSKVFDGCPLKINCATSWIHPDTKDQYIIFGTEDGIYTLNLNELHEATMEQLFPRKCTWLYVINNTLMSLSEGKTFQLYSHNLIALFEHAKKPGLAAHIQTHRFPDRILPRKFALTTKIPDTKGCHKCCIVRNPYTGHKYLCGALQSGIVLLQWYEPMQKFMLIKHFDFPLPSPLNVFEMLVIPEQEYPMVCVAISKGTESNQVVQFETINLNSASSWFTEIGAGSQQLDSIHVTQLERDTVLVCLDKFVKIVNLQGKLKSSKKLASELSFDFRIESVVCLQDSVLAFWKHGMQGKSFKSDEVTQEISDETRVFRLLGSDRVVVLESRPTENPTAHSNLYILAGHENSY

Chain of Tyrosine-protein kinase Fgr (Homo sapiens) (P09769 2-529 limits assumed): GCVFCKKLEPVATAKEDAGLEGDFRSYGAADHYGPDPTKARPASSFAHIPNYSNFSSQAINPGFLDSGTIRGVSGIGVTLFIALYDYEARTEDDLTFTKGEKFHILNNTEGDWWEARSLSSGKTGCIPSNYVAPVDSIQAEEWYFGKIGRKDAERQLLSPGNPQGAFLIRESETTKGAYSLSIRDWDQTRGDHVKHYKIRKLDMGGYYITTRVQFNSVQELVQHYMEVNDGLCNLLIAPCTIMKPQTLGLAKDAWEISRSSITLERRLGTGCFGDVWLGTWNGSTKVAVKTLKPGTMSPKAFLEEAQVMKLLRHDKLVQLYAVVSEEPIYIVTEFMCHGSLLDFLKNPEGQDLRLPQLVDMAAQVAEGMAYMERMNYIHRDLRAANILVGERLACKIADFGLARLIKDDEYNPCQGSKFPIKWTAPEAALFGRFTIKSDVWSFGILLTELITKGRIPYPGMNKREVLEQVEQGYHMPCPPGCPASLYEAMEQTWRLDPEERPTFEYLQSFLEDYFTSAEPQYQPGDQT
Chain of Protein kinase C theta type (Homo sapiens) (Q04759 whole entry, looked up): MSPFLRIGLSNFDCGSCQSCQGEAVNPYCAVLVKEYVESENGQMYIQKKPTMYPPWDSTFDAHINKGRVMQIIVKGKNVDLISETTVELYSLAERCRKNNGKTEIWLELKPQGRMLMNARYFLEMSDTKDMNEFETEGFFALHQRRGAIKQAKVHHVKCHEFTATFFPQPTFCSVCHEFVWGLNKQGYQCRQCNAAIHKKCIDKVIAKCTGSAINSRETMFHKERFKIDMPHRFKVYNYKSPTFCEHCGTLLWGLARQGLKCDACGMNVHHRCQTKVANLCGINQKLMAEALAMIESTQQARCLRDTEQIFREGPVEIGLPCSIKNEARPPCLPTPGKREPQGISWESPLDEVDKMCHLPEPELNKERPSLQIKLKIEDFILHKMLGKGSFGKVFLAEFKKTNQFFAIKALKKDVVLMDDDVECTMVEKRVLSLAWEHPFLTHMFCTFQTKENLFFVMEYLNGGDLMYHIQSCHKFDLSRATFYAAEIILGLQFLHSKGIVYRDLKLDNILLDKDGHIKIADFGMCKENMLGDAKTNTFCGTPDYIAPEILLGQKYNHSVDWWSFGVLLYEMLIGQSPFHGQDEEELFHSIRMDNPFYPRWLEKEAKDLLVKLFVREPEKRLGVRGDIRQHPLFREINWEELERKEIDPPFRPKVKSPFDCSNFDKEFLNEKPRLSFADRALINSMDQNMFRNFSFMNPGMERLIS
Chain of Fibroblast growth factor receptor 1 (Homo sapiens) (P11362 22-822 limits assumed): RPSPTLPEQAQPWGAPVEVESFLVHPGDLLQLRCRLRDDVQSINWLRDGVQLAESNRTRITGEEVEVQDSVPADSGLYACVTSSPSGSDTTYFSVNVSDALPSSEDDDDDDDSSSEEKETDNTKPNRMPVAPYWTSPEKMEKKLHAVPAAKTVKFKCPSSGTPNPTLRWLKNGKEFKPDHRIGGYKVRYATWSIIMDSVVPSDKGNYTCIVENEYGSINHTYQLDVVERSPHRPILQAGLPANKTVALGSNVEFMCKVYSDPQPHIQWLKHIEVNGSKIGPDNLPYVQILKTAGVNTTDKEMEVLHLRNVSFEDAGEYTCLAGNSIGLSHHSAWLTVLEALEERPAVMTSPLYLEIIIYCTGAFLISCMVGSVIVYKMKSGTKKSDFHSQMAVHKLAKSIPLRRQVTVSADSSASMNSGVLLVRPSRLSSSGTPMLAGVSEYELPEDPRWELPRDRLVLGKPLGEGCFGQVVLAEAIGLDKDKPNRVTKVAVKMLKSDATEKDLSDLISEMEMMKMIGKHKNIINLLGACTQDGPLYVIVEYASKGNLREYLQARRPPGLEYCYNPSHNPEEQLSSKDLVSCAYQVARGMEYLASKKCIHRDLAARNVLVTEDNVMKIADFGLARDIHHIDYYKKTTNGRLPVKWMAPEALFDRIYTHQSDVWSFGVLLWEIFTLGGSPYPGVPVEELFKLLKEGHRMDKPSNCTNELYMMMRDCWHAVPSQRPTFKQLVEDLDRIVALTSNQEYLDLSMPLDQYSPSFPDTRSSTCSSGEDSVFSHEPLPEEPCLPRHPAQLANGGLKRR
Chain of Calcium/calmodulin-dependent protein kinase kinase 2 (Homo sapiens) (Q96RR4 2-588 limits assumed): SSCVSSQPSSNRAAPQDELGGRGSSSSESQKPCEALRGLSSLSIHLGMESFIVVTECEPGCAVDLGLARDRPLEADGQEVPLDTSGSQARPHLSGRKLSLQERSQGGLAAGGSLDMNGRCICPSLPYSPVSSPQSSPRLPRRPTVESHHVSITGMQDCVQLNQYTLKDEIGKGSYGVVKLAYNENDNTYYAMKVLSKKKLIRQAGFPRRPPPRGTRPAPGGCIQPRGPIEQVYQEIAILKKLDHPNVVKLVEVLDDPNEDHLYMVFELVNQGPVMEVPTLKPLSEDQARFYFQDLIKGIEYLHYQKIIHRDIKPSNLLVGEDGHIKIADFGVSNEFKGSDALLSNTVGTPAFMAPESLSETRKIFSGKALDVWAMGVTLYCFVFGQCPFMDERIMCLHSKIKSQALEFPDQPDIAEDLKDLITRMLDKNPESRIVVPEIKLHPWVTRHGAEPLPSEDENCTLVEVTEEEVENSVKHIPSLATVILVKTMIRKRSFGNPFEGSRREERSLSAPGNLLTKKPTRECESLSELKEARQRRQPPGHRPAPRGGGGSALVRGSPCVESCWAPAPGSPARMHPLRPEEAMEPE

Compound | inhibition [1] | inhibition [2] | inhibition [3] | inhibition [4] | inhibition [5] | inhibition [6] | inhibition [7] | inhibition [8] | inhibition [9]
Nc1n[nH]c2nnc(-c3c(-c4ccccc4)nn4ccccc34)cc12 | 7.1% | 2.87% | 9.56% | 5.28% | -4.59% | 20.1% | -1.27% | 9.06% | 49.7%
Oc1n[nH]c2nnc(-c3c(-c4ccccc4)nn4ccccc34)cc12 | -0.49% | 0.87% | 1.59% | -1.96% | -3.22% | 8.59% | 2.27% | 8.78% | 3.59%
